Experimental findings from US8586755B2, “Substituted nicotinamides as KCNQ2/3 modulators” (Grünenthal GmbH, priority 2009, dated 2013) are described below.

The test concerns the target T1, KCNQ2/3 channels (Homo sapiens, UniProt O43525+O43526).
T1 construct: expressed in transfected cells
The test is described as follows: Fluorescence assay using a voltage sensitive dye (fluorimetry). The class given is cell-based. Conditions: CHO-K1 cells expressing KCNQ2/3 channels; for pEC50: agonistic activity; for Emax / Fluorimetry % efficacy (retigabine 50 μM = 100%): retigabine 50 μM = 100%; for Emax: read-out: Fluorimetry % efficacy (retigabine 50 μM = 100%). How it is done:
Pharmacological Experiments Fluorescence Assay Using a Voltage Sensitive Dye
Human CHO-K1 cells expressing KCNQ2/3 channels are cultivated adherently at 37° C., 5% CO2 and 95% humidity in cell culture bottles (e.g. 80 cm^2 TC flasks, Nunc) with DMEM-high glucose (Sigma Aldrich, D7777) including 10% FCS (PAN Biotech, e.g. 3302-P270521) or alternatively MEM Alpha Medium (1×, liquid, Invitrogen, #22571), 10% fetal calf serum (FCS) (Invitrogen, #10270-106, heat-inactivated) and the necessary selection antibiotics.
Before being sown out for the measurements, the cells are washed with a 1×DPBS buffer without Ca^2+/Mg^2+ (e.g. Invitrogen, #14190-094) and detached from the bottom of the culture vessel by means of Accutase (PAA Laboratories, #L11-007) (incubation with Accutase for 15 min at 37° C.). The cell count then present is determined using a CASY™ cell counter (TCC model, Schärfe System) in order subsequently to apply, depending on the density optimization for the individual cell line, 20,000-30,000 cells/well/100 μl of the described nutrient medium to 96-well measuring plates of the Corning™ CellBIND™ type (Flat Clear Bottom Black Polystyrene Microplates, #3340). Incubation is then carried out for one hour at room temperature, without gassing or adjusting the humidity, followed by incubation for 24 hours at 37° C., 5% CO2 and 95% humidity.
The voltage-sensitive fluorescent dye from the Membrane Potential Assay Kit (Red™ Bulk format part R8123 for FLIPR, MDS Analytical Technologies™) is prepared by dissolving the contents of a vessel Membrane Potential Assay Kit Red Component A in 200 ml of extracellular buffer (ES buffer, 120 mM NaCl, 1 mM KCl, 10 mM HEPES, 2 mM CaCl2, 2 mM MgCl2, 10 mM glucose; pH 7.4). After removal of the nutrient medium, the cells are washed with 200 μl of ES buffer, then covered with a layer of 100 μl of the dye solution prepared above and incubated for 45 min at room temperature with the exclusion of light.
The fluorescence measurements are carried out with a BMG Labtech FLUOstar™ BMG Labtech NOVOstar™ or BMG Labtech POLARstar™ instrument (525 nm excitation, 560 nm emission, Bottom Read mode). After incubation of the dye, 50 μl of the test substances in the desired concentrations, or 50 μl of ES buffer for control purposes, are introduced into separate cavities of the measuring plate and incubated for 30 min at room temperature while being shielded from light. The fluorescence intensity of the dye is then measured for 5 min and the fluorescence value F1 of each well is thus determined at a given, constant time. 15 μl of a […] KCl solution ([…]) are then added to each well. The change in fluorescence is subsequently measured until all the relevant measured values have been obtained (mainly 5-30 min). At a given time after KCl application, a fluorescence value F2 is determined, in this case at the time of the fluorescence peak.
For calculation, the fluorescence intensity F2 is compared with the fluorescence intensity F1, and the agonistic activity of the target compound on the potassium channel is determined therefrom. F2 and F1 are calculated as follows: […]
In order to determine whether a substance has agonistic activity,
A substance has an agonistic activity on the potassium channel when
[formula] it is possible to conclude that a target compound has agonistic activity if an increase in
[formula] is to be observed as the dosage of the target compound increases.
Calculations of EC50 values are carried out with the aid of ‘Prism v4.0’ software (GraphPad Software™).

pEC50: −log10 of the molar value.

Consider `O=C(NCCC(F)(F)F)c1cccnc1SCCCc1ccc(F)cc1` [compound 48, 2-[3-(4-Fluorophenyl)-propylsulfanyl]-N-(3,3,3-trifluoro-propyl)-pyridine-3-carboxylic acid amide], for which the pEC50 is 6.83 and the Emax was determined as 183%.

On to `O=C(NCC1CC2CCC1C2)c1cccnc1SCCOc1ccc(F)cc1` (centres unmarked) [compound 49, N-(5-Bicyclo[2.2.1]heptanyl-methyl)-2-[2-(4-fluoro-phenoxy)-ethylsulfanyl]-pyridine-3-carboxylic acid amide], for which the pEC50 is 6.64 and the Emax was 174%.

For `O=C(NCC1CC2CCC1C2)c1cccnc1SCCC(O)c1ccc(F)cc1` (centres unmarked) [compound 50], the pEC50 is 5.83 and the “Fluorimetry % efficacy (retigabine 50 μM = 100%)” value is listed as 169%.

Consider `O=C(NCC1CC2CCC1C2)c1cccnc1SCCCc1cccc2ccccc12` (centres unmarked) [compound 52, N-(5-Bicyclo[2.2.1]heptanyl-methyl)-2-(3-naphthalen-1-yl-propylsulfanyl)-pyridine-3-carboxylic acid amide], for which the pEC50 was 6.30 and the Emax amounted to 190%.

Take `O=C(NCC1CCCCCCC1)c1cccnc1SCCCc1ccc(F)cc1` [compound 55, N-(Cyclooctyl-methyl)-2-[3-(4-fluorophenyl)-propylsulfanyl]-pyridine-3-carboxylic acid amide]: the pEC50 is 6.64 and the Emax came to 149%.

In the case of `COc1ccc(CCCSc2ncccc2C(=O)NCC2CC3CCC2C3)cc1` (centres unmarked) [compound 56, N-(5-Bicyclo[2.2.1]heptanyl-methyl)-2-[3-(4-methoxyphenyl)-propylsulfanyl]-pyridine-3-carboxylic acid amide], the pEC50 was 5.99 and the Emax came out at 251%.

For `COc1ccc(CNC(=O)c2cccnc2SCCCc2ccc(F)cc2)cc1` [compound 57, 2-[3-(4-Fluorophenyl)-propylsulfanyl]-N-[(4-methoxyphenyl)-methyl]-pyridine-3-carboxylic acid amide], the negative logarithm of the EC50 (pEC50) is 6.60 and the Emax worked out at 83%.

`O=C(NCC1CC2CCC1C2)c1cccnc1SCCCc1ccc(O)cc1` (centres unmarked) [compound 58]: the pEC50 is 5.41 and the “Fluorimetry % efficacy (retigabine 50 μM = 100%)” value is listed as 174%.

Regarding `O=C(NCc1cccc(C(F)(F)F)c1)c1cccnc1SCCCc1ccc(F)cc1` [compound 59, 2-[3-(4-Fluorophenyl)-propylsulfanyl]-N-[[3-(trifluoromethyl)phenyl]-methyl]-pyridine-3-carboxylic acid amide], the pEC50 was 6.68 and the Emax was determined as 83%.

Regarding `O=C(NCC1CC2CCC1C2)c1cccnc1SCCCc1ccc(F)c(F)c1` (centres unmarked) [compound 60, N-(5-Bicyclo[2.2.1]heptanyl-methyl)-2-[3-(3,4-difluoro-phenyl)-propylsulfanyl]-pyridine-3-carboxylic acid amide], the pEC50 is 6.58 and the Emax is 236%.

With `O=C(NCC1CC2CCC1C2)c1cccnc1SCCCc1cc(F)cc(F)c1` (centres unmarked) [compound 61, N-(5-Bicyclo[2.2.1]heptanyl-methyl)-2-[3-(3,5-difluoro-phenyl)-propylsulfanyl]-pyridine-3-carboxylic acid amide], the pEC50 was 6.66 and the Emax was determined as 283%.

`O=C(NCC1CC2CCC1C2)c1cccnc1SCCCc1ccc(F)cc1F` (centres unmarked) [compound 62, N-(5-Bicyclo[2.2.1]heptanyl-methyl)-2-[3-(2,4-difluoro-phenyl)-propylsulfanyl]-pyridine-3-carboxylic acid amide]: the pEC50 is 6.74 and the Emax is 274%.

As for `O=C(NCc1ccccc1F)c1cccnc1SCCCc1ccc(F)cc1` [compound 63, N-[(2-Fluorophenyl)-methyl]-2-[3-(4-fluorophenyl)-propylsulfanyl]-pyridine-3-carboxylic acid amide], the pEC50 is 7.47 and the Emax is 72%.
